Read-outs that look alike come from different tables or passages of the source.
Experiments:
[1] = system: P. berghei liver stage in HepG2-A16-CD81EGFP; parameters: method as in ref [58, 65] (a number printed in a supplementary file, which may have a reference list of its own: not looked up in the article's list); conditions: ref [58, 65], cited from earlier work; for P. berghei Liver stage activity summary: 50uM; for P. berghei Liver stage infection rate rep1 (luciferase) / P. berghei Liver stage infection rate rep2 (luciferase): 50µM
[2] = Plasma protein binding mouse; type: in vitro ADME; conditions: CD-1, mouse
Experimental: (§1) Columns GD-GJ: Wuxi Inc. data for MMV (data presented first in this paper) PK/DMPK Parameters: Fasted animals (Male CD-1 mouse, 7-9 weeks age, 30±10 g, n=3) obtained from an approved vendor (SLAC Laboratory Animal Co. Ltd., Shanghai, China or Sino-British SIPPR/BK Laboratory Animal Co. Ltd Shanghai, China) were administered with a single oral dose (140 μmol/kg) using DMSO: 1% HPMC (5:95) as a vehicle. Blood sampling was performed via the submandibular or saphenous vein (t=0.083, 0.25, 1, 2, 4, 6 and 9 h) and transferred into microcentrifuge tubes containing Sodium Heparin (1,000 IU/ml) as anti-coagulant placed on wet ice until processed for plasma by centrifugation at approximately 4°C, 3000×g for 15 min. Plasma samples were stored in polypropylene tubes, quick frozen over dry ice and kept at -70±10°C until LC/MS/MS analysis. LC/MS/MS methods for the quantitative determination compounds plasma levels were developed with an internal standard. […] (Phoenix WinNonlin, version 6.2.1, Pharsight, Mountain View, CA) and expressed as Cmax & AUC0-last. […] AUC0-last is the area under the curve expressed as >12 h*μM (Yes or No). Plasma protein binding assay (PPB) (CD-1 mouse and human) expressed as <95% bound, >95% bound, or >99% bound. Kinetic Solubility at pH 7.4 was determined by liquid chromatography/chemiluminescence nitrogen detection (LC/CLND) and was scored as greater than 20µM (Yes or No). hERG inhibition was measured at 11µM by the QPatch- HT system and is expressed as “Yes” if greater than 45% inhibited at 11µM and “No” if less than or equal to 45% inhibited at 11µM. As part of the Drug-Drug Interaction studies (DDI issues), 5 human and 1 mouse CYP isoforms (1A2, 2C9, 2C19, 2D6, 3A4-M, 3A4-T) were tested for inhibition assay at 10 µM. […] Otherwise DDI issues were scored as “No”. Positive and negative controls were run for each assay (Table 1).

[3] = system: Brugia malayi; assay: Brugia malayi Scynexis; type: cell-based; conditions: 10µM
Experimental: Supplement ppat.1005763.s002.xlsx, sheet "S1 Table Heat Map" | column: Brugia malayi 5d % dead at 10µM Scynexis

[4] = system: Leishmania infantum MHOM/MA/BE/67; conditions: ref [84]; read-out: Leishmania infantum EC50 intracellular amastigotes in primary macrophages; cited from earlier work
[5] = system: T. cruzi Tulahuen; conditions: ref [84]; read-out: Trypanosoma cruzi Tulahuen intracellular amastigotes in MRC5 cell line EC50; cited from earlier work
[6] = Kinetic Solubility at pH 7.4 (LC/CLND); type: physicochemical; conditions: pH 7.4, aqueous buffer, kinetic from dmso stock; read-out: Kinetic Solubility >20µM at pH 7.4
Experimental: as §1

[7] = system: B. caballi (USDA); assay: B. caballi fluorescence-based growth assay; type: cell-based; conditions: Babesia caballi
[8] = system: P. falciparum 3D7A stage V gametocytes, female gamete formation; parameters: method as in ref [73] (a number printed in a supplementary file, which may have a reference list of its own: not looked up in the article's list); conditions: 5µM; ref [73]; cited from earlier work
[9] = system: P. falciparum 3D7 gametocytes stage IV-V; assay: Gametocyte pLDH assay UMIL; type: cell-based; conditions: Plasmodium falciparum, 3D7, 72 h
Experimental: Columns BO-BR: Taramelli group (Columns BO-BP data presented first in this paper, Columns BQ-BR are new data except as noted below). Gametocytocidal activity at UMIL. The Malaria Box compounds were used for primary screening against P. falciparum 3D7 gametocytes and subsequently for IC50 determination against Pf gametocytes obtained from the 3D7 and the 3D7elo1-pfs16-CBG99 transgenic strain [74], as previously described. The primary screening was performed on stage IV-V gametocytes from the 3D7 strain at 3.7 µM, in 96 well plates, using 100 nM epoxomicin and 1 µM DHA as positive controls and 0.5% DMSO as negative untreated control. […] The dose-response experiments were performed in 96 well plates using the 3D7 strain (pLDH, 72+72h, column BR in heat map) and the 3D7elo1-pfs16-CBG99 (luciferase assay, 72h, column BQ in heat map). Data analysis was performed as described.

[10] = system: Saccharomyces cerevisiae ABC16-Monster; assay: S. cerevisiae ABC16-Monster growth inhibition; type: cell-based; conditions: ABC16MONSTER, read-out: S. cerevisiae strain ABC16-Monster in YPD % inhibition
Experimental: Column EA: Suzuki group (data presented first in this paper). Screening of MMV compounds for Saccharomyces cerevisiae ABC16-Monster growth inhibition. Methods: Compounds were added at 100 micromolar to YPD medium (1% yeast extract, 2% peptone, and 2% glucose). Only the solvent dimethyl sulfoxide (DMSO) without any MMV compound was added at 1% to the negative control. The initial density of ABC16-Monster cells corresponded to optical density at 600 nanometers (OD600) of 0.01. Cells were cultured without agitation in a 96-well plate at 30 degrees Celsius for 18 hours and then resuspended for measurement of OD600. For each compound, two cultures were conducted and examined. The average OD600 value was used. To calculate percent inhibition, OD600 for cells cultured with a compound was divided by OD600 for the negative control. The ABC16-Monster yeast strain was previously described.

[11] = system: P. falciparum Dd2; assay: P. falciparum Dd2 asexual blood stages Scynexis; type: cell-based; conditions: Plasmodium falciparum
[12] = system: B. bovis (Texas strain); assay: B. bovis fluorescence-based growth assay; type: cell-based; conditions: Babesia bovis, in Bos taurus
[13] = system: B. bigemina (Argentine strain); assay: B. bigemina fluorescence-based growth assay; type: cell-based; conditions: Babesia bigemina
[14] = system: S. mansoni newly transformed schistosomula (NTS); parameters: method as in ref [91] (a number printed in a supplementary file, which may have a reference list of its own: not looked up in the article's list); conditions: ref [91]; read-out: Schistosoma mansoni newly transformed schistosomula EC50 J. Keiser; cited from earlier work
[15] = system: CYP2D6 mRNA; assay: MPCC LMA-Luminex CYP2D6 mRNA; type: cell-based, human; conditions: 10µM
[16] = system: CYP3A4 mRNA; assay: MPCC LMA-Luminex CYP3A4 mRNA; type: cell-based, human; conditions: 10µM
[17] = 3.7 µM, read-out: gametocytes 3D7, stage IV-V, pLDH, 72+72h, %inhibition
[18] = 3.7µM, read-out: gametocytes 3D7, stage IV-V, pLDH, 72h, %inhibition

For CCN1CCN(c2cc(C)c3cc(NC(=O)c4ccc(OC)c(OC)c4)ccc3n2)CC1 [MMV019074], the “P. berghei Liver stage activity summary” value [1] is listed as “tox (tox (toxic) if >50% HepG2)”, the “P. berghei Liver stage infection rate rep1 (luciferase)” value [1] is listed as -3.74% and the “P. berghei Liver stage infection rate rep2 (luciferase)” value [1] is listed as -4%. For the same molecule, the fraction unbound [2] was < 0.05, the “Brugia malayi 5d % dead” value [3] was -2% and the EC50 [4] was 6.35 µM. The EC50 [5] was 6.59 µM, the solubility kinetic [6] was < 20 µM and the EC50 [7] was 5.93 µM. For the same molecule, the “3D7A female gamete formation acridine orange % inhibition” value [8] was -18%, the inhibition at 3.7 µM [9, 17] was 13% and the inhibition at 3.7 µM [9, 18] was 10%. For the same molecule, the inhibition at 100 µM [10] was 3.48%, the inhibition at 10 µM [11] was 80% and the EC50 [12] was 6.69 µM. The EC50 [13] was 7.92 µM and the EC50 [14] was > 33.3 µM.

In the case of COc1ccc(C(=O)Nc2ccc3nc(N4CCCCC4)cc(C)c3c2)cc1OC [MMV019758], the “P. berghei Liver stage activity summary” value [1] is given as “tox (tox (toxic) if >50% HepG2)”, the “P. berghei Liver stage infection rate rep1 (luciferase)” value [1] is given as -4% and the “P. berghei Liver stage infection rate rep2 (luciferase)” value [1] is given as -4%. For the same molecule, the fraction unbound [2] was < 0.01, the “Brugia malayi 5d % dead” value [3] was 9% and the EC50 [4] was 16.2 µM. For the same molecule, the EC50 [5] was 14.6 µM, the solubility kinetic [6] was < 20 µM and the EC50 [7] was 0.51 µM. For the same molecule, the inhibition at 3.7 µM [9, 17] was 11%, the inhibition at 3.7 µM [9, 18] was 12% and the inhibition at 100 µM [10] was -8%. It also gave an inhibition at 10 µM [11] of 36%, an EC50 [12] of 14.3 µM and an EC50 [13] of 0.46 µM. The EC50 [14] was > 33.3 µM.

In the case of CCN(CC)c1cc(C)c2cc(NC(=O)c3cccc(OC)c3)ccc2n1 [MMV000498], the “P. berghei Liver stage activity summary” value [1] is listed as “tox (tox (toxic) if >50% HepG2)”, the “P. berghei Liver stage infection rate rep1 (luciferase)” value [1] is listed as -3.74% and the “P. berghei Liver stage infection rate rep2 (luciferase)” value [1] is listed as -5.7%. The fraction unbound [2] was < 0.01, the “Brugia malayi 5d % dead” value [3] was 13% and the EC50 [4] was 16.2 µM. For the same molecule, the EC50 [5] was 13.7 µM, the solubility kinetic [6] was < 20 µM and the EC50 [7] was 9.33 µM. For the same molecule, the “3D7A female gamete formation acridine orange % inhibition” value [8] was 3%, the inhibition at 3.7 µM [9, 17] was 11% and the inhibition at 3.7 µM [9, 18] was 5%. The inhibition at 100 µM [10] was -6%, the inhibition at 10 µM [11] was 8% and the EC50 [12] was 10 µM. For the same molecule, the EC50 [13] was 8.99 µM and the EC50 [14] was > 33.3 µM.

For COc1cc2cc(C(=O)Nc3ccccc3)c(N)nc2cc1OC [MMV006767], the “P. berghei Liver stage infection rate rep1 (luciferase)” value [1] is listed as 27%, the “P. berghei Liver stage infection rate rep2 (luciferase)” value [1] is listed as 61% and the fraction unbound [2] is listed as > 0.05. For the same molecule, the “Brugia malayi 5d % dead” value [3] was 18%, the solubility kinetic [6] was > 20 µM and the EC50 [7] was 6.22 µM. For the same molecule, the “3D7A female gamete formation acridine orange % inhibition” value [8] was -3%, the inhibition at 3.7 µM [9, 17] was 2.43% and the inhibition at 3.7 µM [9, 18] was 10%. For the same molecule, the inhibition at 100 µM [10] was 24%, the inhibition at 10 µM [11] was 40% and the “Human hepatocyte CYP2D6 mRNA induction, 0.0 normal” value [15] was -0.21. For the same molecule, the EC50 [12] was 0.86 µM, the “Human hepatocyte CYP3A4 mRNA induction, 0.0 normal” value [16] was 0.0216 and the EC50 [13] was 21.1 µM. For the same molecule, the EC50 [14] was > 33.3 µM.

In the case of CCOC(=O)c1cnc2ccc(OC)cc2c1NCc1ccccc1 [MMV665813], the “P. berghei Liver stage activity summary” value [1] is given as “tox (tox (toxic) if >50% HepG2)”, the “P. berghei Liver stage infection rate rep1 (luciferase)” value [1] is given as -3.22% and the “P. berghei Liver stage infection rate rep2 (luciferase)” value [1] is given as -4%. For the same molecule, the fraction unbound [2] was < 0.01, the “Brugia malayi 5d % dead” value [3] was 12% and the EC50 [4] was 10.1 µM. For the same molecule, the EC50 [5] was 13 µM, the solubility kinetic [6] was < 20 µM and the EC50 [7] was 5.9 µM. For the same molecule, the “3D7A female gamete formation acridine orange % inhibition” value [8] was -11%, the inhibition at 3.7 µM [9, 17] was 12% and the inhibition at 3.7 µM [9, 18] was 26%. The inhibition at 100 µM [10] was -1.7%, the inhibition at 10 µM [11] was 55% and the “Human hepatocyte CYP2D6 mRNA induction, 0.0 normal” value [15] was -1.27. For the same molecule, the EC50 [12] was 0.72 µM, the “Human hepatocyte CYP3A4 mRNA induction, 0.0 normal” value [16] was -0.06 and the EC50 [13] was 1 µM. The EC50 [14] was > 33.3 µM.

Source: PMC4965013, “Open Source Drug Discovery with the Malaria Box Compound Collection for Neglected Diseases and Beyond” (PLoS Pathogens, 2016)
